# Assay results taken from patent US9726659B2, “CMPF as a biomarker for diabetes and associated methods” (The Governing Council of the University of Toronto, priority 2012, dated 2017).
# Legend:
# MIN6 cells = assay: Annexin V and propidium iodide staining for apoptosis and necrosis; format: cell-based, murine; details: 5 mM, 3 hrs
# Description: A) MIN6 cells were treated for 4 hrs with 0 uM (EtOH vehicle control), 20 uM or 200 uM CMPF prior to being loaded with Annexin V and propidium iodide fluorescent dyes, and counterstained with Hoechst dye. […] B) Primary CD1 islets were dispersed and treated with vehicle control (0 CMPF, black), 20 uM CMPF (grey), or 200 uM CMPF (white) for 48 hours, then stained with Annexin V, Propidium Iodide and Hoechst dye. Quantification of double positive staining was assessed by an Arrayscan VTI HCS reader.
# Next the mechanism underlying the observed impairment in GSIS following treatment with CMPF was investigated. To determine whether CMPF was inhibiting GSIS by inducing beta cell apoptosis, Annexin V and Propidium Iodide staining was performed in MIN6 cells treated with vehicle (EtOH), 20 uM or 200 uM CMPF for 4 hrs to look for apoptosis and necrosis respectively. […] MIN6 cells treated with 5 mM H2O2 for 3 hrs were used as a positive control (FIG. 4).
# CD1 mouse islets = assay: GSIS and insulin content of CMPF-treated islets with OAT inhibitors; format: cell-based
# Source text: A) Microarray analysis of human islets showing expression of OAT transporters and beta-cell genes (n=3). Validation of OAT expression in human islets by (b) RT-PCR, (c) western blot, and (d) immunofluorescent staining with insulin (n=3-5). Human kidney samples are from the HK2 human proximal tubule cell line. GSIS from murine islets co-treated with OAT inhibitors (e) Probenecid, (f) benzylpenicillin (PCG) and (g) p-aminohippurate (PAH) (n=4/group). h) Total insulin content from murine islets co-treated with CMPF and PCG (n=4). Values mean+/−SEM. Student's t-test (a, e-h). *P<0.05, **P<0.01, ***P<0.001.
# To determine if the OAT transporters are responsible for CMPF transport into beta cells, CD1 mouse islets were pre-treated 1 mM Probenecid prior to the addition of CMPF to ensure blockage of the channels and complete exclusion of CMPF from the cells. A dosage of 1 mM Probenecid was selected based on previous evidence that this concentration was sufficient to inhibit anion transport from beta cells without any observed effect on glucose-stimulated insulin secretion (Arkhammar et al. 1989). Islets were pre-treated with 1 mM Probenecid for 3 hours prior to the addition of 200 uM CMPF. After 24 hours cells were assessed by GSIS. Treatment with 200 uM CMPF alone produced a significant decrease in GSIS under both high glucose and KCl-stimulated conditions, consistent with previous findings, while treatment with 1 mM Probenecid for 27 hours had no effect on GSIS compared to vehicle controls. […] Therefore, probenecid inhibits the effect of CMPF. Similar results were obtained using the OAT3-specific inhibitor PCG. Islets were again pre-treated for 3 hours with 300 uM PCG prior to 24-hour 200 uM CMPF treatment (FIG. 14B).
# To determine if OATs are responsible for CMPF transport into beta-cells, we utilized inhibitors of OAT function. Probenecid is a non-specific OAT-blocker (Miyamoto et al., 2012). Treatment of islets with 1 mM probenecid for 24 hrs rescued insulin secretion from CMPF-treated islets to control levels (FIG. 19e). To determine which OAT is primarily responsible for CMPF transport into beta-cells, we treated islets with 300 μM of benzylpenicillin (PCG), an OAT3-specific inhibitor, or 50 μM of paminohippurate (PAH), an OAT1-specific inhibitor (Deguchi et al., 2005). Consistent with previous reports that OAT3 is the dominant CMPF transporter (Deguchi et al., 2005), PCG was able to rescue insulin secretion and insulin content from CMPF-treated islets to control levels (FIG. 19f,h). However, treatment with PAH had no effect on secretion (FIG. 19g). Therefore, CMPF is transported into the beta-cell through OAT3, and blockage of this transporter prevents CMPF from impairing GSIS and insulin biosynthesis.
# OAT3 = target: T1, OAT3 (Rattus norvegicus, UniProt Q9R1U7); details: concentrations of PCG that selectively inhibit OAT3; cited from earlier work
# T1 construct: host or cells: kidney (in vivo, per the cited study)
# T1 sequence (Q9R1U7 1-536): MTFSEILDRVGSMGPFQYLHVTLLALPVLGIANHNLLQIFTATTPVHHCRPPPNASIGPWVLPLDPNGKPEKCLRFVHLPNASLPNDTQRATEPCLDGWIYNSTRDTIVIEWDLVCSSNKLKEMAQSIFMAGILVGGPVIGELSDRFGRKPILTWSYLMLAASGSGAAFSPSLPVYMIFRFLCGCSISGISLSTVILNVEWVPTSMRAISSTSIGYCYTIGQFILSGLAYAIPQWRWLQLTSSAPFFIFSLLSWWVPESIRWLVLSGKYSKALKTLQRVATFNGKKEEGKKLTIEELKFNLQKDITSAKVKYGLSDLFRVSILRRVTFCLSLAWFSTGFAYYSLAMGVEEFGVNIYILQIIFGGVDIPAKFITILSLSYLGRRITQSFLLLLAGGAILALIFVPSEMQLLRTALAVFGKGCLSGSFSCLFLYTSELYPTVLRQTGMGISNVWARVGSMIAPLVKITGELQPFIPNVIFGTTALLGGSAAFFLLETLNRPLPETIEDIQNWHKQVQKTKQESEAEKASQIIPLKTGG
# mice = assay: Probenecid IP twice daily for 3 days in mice; format: in vivo
# Description: Mice were injected IP with 150 mg/kg probenecid twice daily for 3 days as previously described (Baudoux et al., 2012).
# OAT transporter = details: 5 mg/kg CMPF co-administered with 150 mg/kg probenecid; cited from earlier work
# mouse islets = assay: ROS accumulation in isolated islets (mitoSOX red, CM-H2-DCFDA); format: cell-based; details: co-treatment with 500 μM NAC, 24 hr
# Description: A) Proinsulin in the media of 24 hr treated islets (n=4/group). B) Mitochondrial membrane potential (MMP) following acute addition of vehicle control or 200 μM of CMPF (N=3/group). C) ROS levels in 4- and 24-hour treated mouse islets with representative images (N=10-15 islets/mouse from 4 mice/group). D) Expression of antioxidant genes Cat and (e) Ucp2 (n=4/group). F) ROS accumulation in 24 hr-treated islets treated with 500 μM NAC (n=10 islets/mouse from 4 mice/group). G) GSIS and (h) total insulin content from 24 hr-treated islets co-treated with 500 μM NAC (n=4/group). Western blots showing (i) Ser9 phosphorylation of GSK3β, (j) Ser473 phosphorylation of AKT (n=3/group). K) Immunofluorescent staining showing nuclear translocation of FOXO1 and (l) PDX1 with CMPF and NAC treatment (n=3-6). Quantification of nuclear percentage of (m) FOXO1 and (n) PDX1 based on immunofluorescent staining with CMPF and NAC treatment. O) Western blots showing protein abundance of PDX1 and FOXO1. Values are mean+/−SEM. Student's t-test (a, c-j, m-o), one-way ANOVA (b). *P<0.05, **P<0.01, ***P<0.001.
# The level of superoxide and H2O2 were determined using mitoSOX red and 2′,7′-dichlorodihydro fluorescein diacetate (CM-H2-DCFDA) respectively (Molecular Probes, Invitrogen, Canada) in isolated islets treated with either vehicle control or 200 μM CMPF for 4 or 24 hours, as previously described (Lee et al. 2009). […]
# [1] = system: dispersed CD1 mouse islet cells; assay: Immunofluorescent staining of FOXO1 and PDX1 localization; format: cell-based; details: treatment with NAC
# Description: The cellular localization of FOXO1 and PDX1 were determined in dispersed CD1 mouse islet cells using immunofluorescence. The presence of the organic anion transporters (OATs) were determined in dispersed human islet cells also using immunofluorescence. Staining was performed as previously described (Diao et al., 2008). Images were acquired using a confocal microscope (Quorum Wave FX Spinning Disc; Perkin Elmer, Waltham M L, USA) and Volocity software (Perkin Elmer).
# To determine the mechanism through which CMPF decreases insulin biosynthesis we examined its effect on these key regulators. Under normal conditions, AKT and GSK3β have reciprocal activities. Active pAKT phosphorylates and inactivates GSK3β, preventing phosphorylation of downstream targets (Humphrey et al., 2010). […] FOXO1 is normally sequestered in the cytosol due to phosphorylation by AKT (Kitamura et al., 2005). […] Altered activity of these transcription factors is further confirmed by decreased mRNA levels of key target genes including Inst, transcription factors Pdx1 and Mafa, proinsulin processing enzymes CpE, Pc1 and Pc2, and the glucose transporter Glut2 (Boucher et al., 2006; Kaneto et al. 2008) (FIG. 18a).
# murine islets = assay: Total insulin content in murine islets; format: cell-based; details: co-treatment with 500 μM NAC, 24 hr
# Description: Murine islets were treated for 24 hrs with vehicle control (0 CMPF), 20 uM (20 CMPF), or 200 uM (200 CMPF) CMPF, and assessed for total insulin content and mRNA expression. […] Decreased expression of insulin processing enzymes PCSK1, 2 and CpE (F), (G), (H) indicate that CMPF may also impair post-translational insulin processing. Finally, CMPF causes decreased expression of the beta cell glucose transporter GLUT2, and GCK, the rate-limiting enzyme critical for glucose metabolism (I) and (J), perhaps impairing glucose sensing and metabolism. In all cases n=4, *P<0.05.
# In the absence of apoptosis and necrosis, CMPF must be impairing GSIS by causing beta cell dysfunction. First, the effect of CMPF treatment on insulin biosynthesis was investigated to determine if insulin is available to be released upon stimulation. MIN6, murine and human islets were treated with vehicle control, 20 uM and 200 uM CMPF for 4 hrs (MIN6) or 24 hrs (islets), and total insulin content measured. […] Lower total insulin content may be due to either defective insulin processing from proinsulin to mature insulin, or insufficient insulin transcription. To determine the mechanism through which CMPF is reducing total insulin content, quantitative PCR (qPCR) was performed on RNA that was isolated from murine islets treated with either vehicle control or 200 uM CMPF for 24 hrs.
# primary murine islets = assay: Glucose- and KCl-stimulated insulin secretion in primary murine islets; format: cell-based; details: co-treatment with 500 μM NAC, 24 hr
# Description: LG=2.8 mM glucose, HG=16.7 mM glucose, KCl=16.7 mM glucose+30 mM KCl. *p<0.05.
# Since beta cell failure is a major underlying cause of both GDM and T2D, the effect of increased CMPF on beta cell function was investigated both in vitro and in vivo. Using physiological concentrations of CMPF (20 uM and 200 uM, as observed in our NGT-pregnant and GDM-pregnant samples respectively (FIG. 2)), as well as a vehicle control (EtOH), its effect was studied on glucose-stimulated insulin secretion (GSIS) and insulin secretion in response to direct depolarization using the secretagogue KCl in an immortalized murine beta cell line (MIN6), as well as primary isolated human and murine islets (FIG. 3A). […] Therefore, high physiologically relevant levels of CMPF impair GSIS.
# [2] = 150 mg/kg IP twice daily for 3 days
structure (smiles),measurement,setting,value
"OO [H2O2, reference compound]",Annexin V and propidium iodide staining (positive control),MIN6 cells,only observed in the positive control
"Nc1ccc(C(=O)NCC(=O)O)cc1 [PAH, p-aminohippurate]",insulin secretion of CMPF-treated islets,CD1 mouse islets; 50 μM,no effect
"CC1(C)S[C@@H]2[C@H](NC(=O)Cc3ccccc3)C(=O)N2[C@H]1C(=O)O [PCG, benzylpenicillin]","insulin secretion, inhibitor alone",CD1 mouse islets; 300 uM,no significant effect
same,effect of 200 uM CMPF on insulin secretion under high glucose,"CD1 mouse islets; 300 uM, 3 hour pre-treatment, then 24 hours with CMPF",inhibited the effect of CMPF
same,insulin content of CMPF-treated islets,"CD1 mouse islets; 300 μM, to control levels",rescue
same,CMPF secretion prevented,OAT3,65-75%
CCCN(CCC)S(=O)(=O)c1ccc(C(=O)O)cc1 [probenecid],effect of 200 uM CMPF on high-glucose and KCl-stimulated insulin secretion,"CD1 mouse islets; 1 mM, 3 hour pre-treatment, then 24 hours with CMPF",completely abolished the effect of CMPF
same,"GSIS, inhibitor alone vs vehicle","CD1 mouse islets; 1 mM, 27 hours",no effect
same,body weight,mice; [2],No differences
same,fasting blood glucose,mice; [2],No differences
same,plasma uric acid concentrations,mice; 150 mg/kg twice daily,significantly reduced
same,glucose tolerance (2 g/kg OGTT),mice; on the 4th day,no significant difference
same,plasma clearance of CMPF,OAT transporter,significantly reduced
"CC(=O)N[C@@H](CS)C(=O)O [NAC, N-Acetyl-Cysteine, reference compound]",CMPF-induced increase in ROS production,mouse islets,inhibited
same,CMPF-induced translocation of FOXO1,[1],prevented
same,CMPF-induced translocation of PDX1,[1],prevented
same,insulin content in CMPF-treated islets,murine islets,rescued
same,insulin secretion (GSIS) in CMPF-treated islets,primary murine islets,rescued
